In patent publication US20060105013A1, “Osteopontin-coated surfaces and methods of use” (priority 2000, published 2006):

Legend:
Format in all cases: cell-based, human
HOS cells [1] = assay: Proliferation of HOS cells on Ti disks coated with rhOPN (3H-thymidine incorporation)
Protocol: Cell proliferation was determined by the rate of ^3H-Thymidine incorporation into DNA. Cells were labeled with 10 μCi/ml of ^3H-Thymidine in DME media. After 6 hours, the cells were lysed in cold 10% trichloroacetic acid (TCA). The TCA insoluble material was collected and washed several times with 10% TCA, then resuspended in 0.5 N NaOH. ^3H-thymidine incorporation into TCA insoluble material was used as an index of cell proliferation. The material collected was mixed with scintillation liquid (Begman). The amount of radiation generated was compared between cells grown in titanium disks uncoated, and titanium disks coated with OPN.
Cell proliferation was determined by the rate of ^3H-Thymidine incorporation into DNA. Cells labeled with ^3H-Thymidine were seeded for 6 hours, then lysed with TCA. The TCA insoluble material was collected and resuspended in 0.5 N NaOH. ^3H-thymidine incorporation into TCA insoluble material was used as an index for cell proliferation. Rate of proliferation is expressed as cpm/1000 cells/6 h. Control group: 254,54, rhOPN group: 560,83. All measurements were done in triplicates and reported as mean±Standard error for the mean.
Since rhOPN promoted cell attachment to Ti disks, it was of interest to examine whether the protein had any effect on the proliferation of HOS grown on Ti disks.

HOS cells [2] = assay: Western blot of osteopontin and BSP secreted into extracellular matrix by HOS cells on coated Ti disks
Protocol: Osteopontin and BSP were extracted from the extracellular matrix of HOS cells cultured on Ti disks or Ti disks coated with the recombinant Opn with lysis buffer (20 mM phosphate buffer, pH, 7.2, containing 150 mM NaCI, 0.1% SDS, 1 mM phenylmethylsulfonyl fluoride, 5 mM benzamidine, 0.1 mM e-amino caproic acid, 0.1 b-hydroxy mercuribenzoate, 0.1 mM pyrophosphate, 1 mM sodium fluoride, 1 mM sodium orthovanadate and 10 mM EDTA). Samples were then processed for Gel electrophoresis.
Western blot analysis: Cell layer proteins and conditioned media was electrophoresed in 10% SDS-polyacrylamide slab gels at 150 volts for 4 h. For Western blot analysis resolved proteins in gels were transferred by semi-dry blotting onto nitrocellulose membranes (Schleicher & Schuell, Keene, N H), gel transfers were carried out for 90 min. at 12 V in 0.025 M Tris-glycine buffer, pH 8.2, containing 20% methanol and 0.01% Tween 20 and 10% nonfat dry milk, then incubated with rabbit anti-mouse osteopontin (Ashkar S, et al., New York Academy of Science 760:296-298, 1995) in 20 mM Phosphate buffer, pH 7.4, containing 150 mM NaCL, 0.1% Tween 20 and 1% nonfat dry milk. […] Nonspecific interaction was assessed by the interaction of the primary and secondary antibodies with rabbit serum albumin. […]

HOS cells [3] = assay: Extracellular matrix mineralization (calcium content) of HOS cells on coated Ti disks; conditions: ascorbate and β-glycerol phosphate, uncoated did not mineralize
Protocol: HOS cells were grown either on coated or uncoated titanium disks. Media was supplemented with ascorbate and b-glycerol phosphate to stimulate the mineralization of the extracellular matrix. After two weeks, media was removed and the cells were lysed with triton. Then, all soluble components were removed and calcium content was determined using quantitative, calorimetric determination at […] (Sigma Diagnostics Calcium). Basically, calcium reacts with o-cresolphthalein, a chromogenic agent that in an alkaline medium forms a purple colored complex. The intensity of the color, measured at […], is directly proportional to calcium concentration in the sample.
HOS cells were grown either on coated or uncoated titanium disks. Media was supplemented with ascorbate and β-glycerol phosphate. After two weeks, media was removed and the cells were lysed. Then, all soluble components were removed and calcium content was determined using quantitative, colorimetric determination at 575 nm (Sigma Diagnostics Calcium). All measurements were done in triplicates and reported as mean±Standard error in the mean.
When cultured in the presence of ascorbate and β-glycerol phosphate, HOS cells grown on coated Ti disks mineralized their extracellular matrix within 2 weeks (FIG. 5) in a manner similar to HOS cells cultured on plastic. […]

HOS cells [4] = assay: Attachment of HOS cells to plastic, glass or chromocobalt surfaces coated with OPN; conditions: 1 hour
Protocol: 500 cells were plated on coated plastic, glass or chromocobalt surfaces and incubated at 37° C. in a humidified atmosphere (95% air 5% CO2). Surfaces were coated with either human recombinant phosphorylated OPN (rhOPN) or unphosphorylated OPN. Fibronectin coated surfaces were used as a control. After 1 hour, unattached cells were removed and the surfaces were washed with PBS. The total number of attached cells was determined for the total cpm released for the surfaces after the cells were lysed with 10% TCA and solubilized in 5 ml scintillation fluid. All measurements were done in triplicates.

HOS cells [5] = assay: Proliferation of HOS cells on plastic, glass or CrCo surfaces coated with rhOPN
Protocol: Cell proliferation was determined by the rate of ^3H-Thymidine incorporation into DNA. Cells labeled with ^3H-Thymidine were seeded for 6 hours, then lysed with TCA. The TCA insoluble material was collected and resuspended in 0.5 N NaOH. ^3H-thymidine incorporation into TCA insoluble material was used as an index for cell proliferation. Rate of proliferation is expressed as cpm/1000 cells/6 h. All measurements were done in triplicates.
Since rhOPN promoted cell attachment to different surfaces, it was of interest to examine whether the protein had any effect on the proliferation of HOS grown on these surfaces.

Substance: rhOPN: human recombinant phosphorylated form of osteopontin
- Rate of proliferation (HOS cells [1]): 560,83 cpm/1000 cells/6 h
- proliferation rate relative to cells grown on uncoated Ti disks (HOS cells [1]): approximately twice
- OPN secretion into the extracellular matrix (Western blot) (HOS cells [2]; HOS cells on coated Ti disks vs uncoated titanium controls): increased secretion of OPN
- BSP extracellular matrix secretion (Western blot) (HOS cells [2]; HOS cells on rhOPN coated implants, control groups did not express BSP): less marked than the production of osteopontin
- time within which HOS cells mineralized their extracellular matrix (HOS cells [3]): ≤ 2 weeks
- % total attached (HOS cells [4]; Plastic surface): 90.8%
- % total attached (HOS cells [4]; chromocobalt (CrCo) surface): 69.2%
- % total attached (HOS cells [4]; glass surface): 98.1%
- Proliferation Rate (HOS cells [5]; CrCo): 1740 Cpm/6 h/1000 cells
- Proliferation Rate (HOS cells [5]; Glass): 2740 Cpm/6 h/1000 cells
- Proliferation Rate (HOS cells [5]; Plastic): 3300 Cpm/6 h/1000 cells
- proliferation rate relative to cells grown on uncoated surfaces (HOS cells [5]; glass, plastic and chromocobalt surfaces): at least twice
